Key:
Estimated LD50 = format: in vivo; conditions: ip
in vivo = conditions: ip
mice = assay: antihypoxia test: survival duration of mice in normobaric atmosphere of 96% nitrogen and 4% oxygen; format: in vivo
Text: The antihypoxia test measures the survival duration of mice in a normobaric atmosphere consisting of 96% nitrogen and 4% oxygen, at ambient temperature. The mice are considered dead when they stop visible aspiration. The test indicates potential clinical utility in situations of central nervous system hypoxia, such as occurs following stroke, cardiac arrest, and traumatic accidents.

## O=C1N(c2cccc(Cl)c2)N=C2C3CC4CC(C3)CC12C4 [3-(3-Chlorophenyl)-3,4-diazatetracyclo[6.3.1.1^6,10.0^1,5]tridec-4-en-2-one]
Estimated LD50
  Estimated LD50: > 100 mg/kg
In vivo
  TD50: 25 mg/kg
mice; 2.5 mg/kg ip, N=10, ambient temp., control 8.7, P NS (P > 0.05)
  Antihypoxia, Survial Minutes, Compound: 8.0 min
mice; 5 mg/kg ip, N=10, ambient temp., control 8.7, P <0.05
  Antihypoxia, Survial Minutes, Compound: 10.5 min
mice; 10 mg/kg ip, N=10, ambient temp., control 6.9, P <0.05
  Antihypoxia, Survial Minutes, Compound: 9.5 min
mice; 25 mg/kg ip, N=5, ambient temp., control 8.7, P 0.075
  Antihypoxia, Survial Minutes, Compound: 13.0 min
mice; 25 mg/kg ip, N=10, ambient temp., control 6.9, P <0.05
  Antihypoxia, Survial Minutes, Compound: 12.6 min
mice; 25 mg/kg, intraperitoneally
  prolongation of survival of mice (in words): prolonged the survival of mice by a very significant margin

Source: patent US4732909A, “3-(3-halophenyl-3,4-diazatetracyclo-[6.3.1.1^6,10.0^1,5 ]tridec-4-en-2-one compounds and use thereof to treat hypoxia” (Pennwalt Corporation, priority 1987, dated 1988)
